Test [1] deals with Dα6 and C. elegans ric3 expressed in D.Mel-2 cells. The test is described as follows: [3H]DHSA radioligand displacement binding in D.Mel-2 cells. Also on record: species or system Drosophila melanogaster. As to the method: D.Mel-2 cells were seeded into 75 cm^2 flasks at 1.9×10^7 cells/flask in Drosophila SFM containing antibiotic/antimicotic and incubated overnight at 27° C. The transfection mix was prepared in 12×75 mm polystyrene tubes by mixing 1630 μl sterile water, 40 μg pIB/V5-HisA/ric3, 40 μg pIB/V5-HisA/30D and 250 μl CellFectin. The reagents were mixed gently and incubated at room temp for 15 minutes. While the transfection mix was incubating, the cells were washed with 10 ml fresh Drosophila SFM without antibiotics; this media was then removed from the cells and replaced with 6 ml fresh Drosophila SFM without antibiotics. To the transfection mix was added 4 ml Drosophila SFM without antibiotics and this was then transferred to the flask. The reagents were gently mixed by pipetting up and down and then incubated overnight at 27° C.
D.Mel-2 cells were purchased from Invitrogen (Carlsbad, Calif.) and grown in disposable 125 ml shake flasks using 50 ml volume. Cells were subcultured to 3×10^5 cells/ml twice per week in Drosophila SFM containing 5 ml/L Antibiotic-Antimycotic (100×) (Gibco, Carlsbad, Calif.). D.Mel-2 cells were seeded into a 12-well plate at a cell density of 5×10^5 cells/well and incubated overnight at 27° C. In a 12×75 mm polystyrene tube 6 μg pIB/V5-HisA/ric3, 82 μl sterile H2O and 12 μl CellFectin (Invitrogen, Carlsbad, Calif.) were added. The sample was mixed gently and incubated at room temperature for 15 minutes. While the transfection mix was incubating, media from one well of cells was removed and replaced with 1 ml fresh media without antibiotics. After 15 minutes, the media was removed from cells. To this transfection mix, 0.5 ml media (no antibiotics) was added. This solution was then added to the cells. The mixture was incubated for 48 hrs at 27° C. After 48 hrs, the cells were scraped from the plate using a cell scraper and split into 4 wells of a 6-well plate each containing 2 ml Drosophila SFM with antibiotics. Cells were allowed to attach for 1 hr at 27° C.; the media was removed and replaced with 2 ml fresh media containing 25 μg/ml Blasticidin S (Invitrogen, Carlsbad, Calif.). Cells were incubated at 27° C. for 5 days. After 5 days, the cells were scraped loose from the wells and combined into one tube. Cells were spun down at 600 rpm in a tabletop centrifuge; the media was removed and the cells were resuspended into a 50 ml shake culture in fresh Drosophila SFM containing 25 μg/ml Blasticidin S. The cells were incubated at 27° C./140 rpm. Cells were subcultured twice weekly back to cell density of 3×10^5 cells/ml. After 4 weeks the selection was cut back to 10 μg/ml Blasticidin S. After 3 months of growth under selection, a 12 well plate was seeded at 5×10^5 cells/well and cells were incubated over night at 27° C. The following reagents were added to each of three 12×75 mm polystyrene tubes: 2 μg pMT/V5-HisA/30D, 0.15 μg pCoHygro (Invitrogen, Carlsbad, Calif.) (a […] ratio of expression plasmid:selection plasmid), 89 μl sterile H2O and 12 μl CellFectin. The samples were mixed gently and incubated at room temp for 15 minutes and then transfected as described above. After 24 hrs, the media containing transfection mix was removed and replaced with 1 ml fresh media containing antibiotics. The incubation was continued at 27° C. for another 24 hrs. Cells were scraped loose from the 12-well plate (3 wells) and split into 2, 6-well plates. Cells were allowed to attach for 6 hours at which point, the media was replaced with 2 ml/well fresh media containing 200, 150, 100 or 50 μg/ml hygromycin B. The incubation was continued at 27° C.; every 4-5 days, the media was replaced with media containing hygromycin every 4-5 days. After 2 weeks of selection in the plates, the cells from the 200 μg/ml selection, were scraped loose and then gently pelleted and resuspended in 25 ml fresh media containing 200 μg/ml hygromycin B and then placed into a 125 ml shake flask.
On the technique in general: Displacement assays read how much labelled ligand stays bound in the presence of the test substance.

Test [2] deals with Drosophila melanogaster flies of a spinosyn-resistant strain. The test is described as follows: Adult fly mortality screen, spinosyn-resistant flies. In kind it is in vivo. Here is the method:
(§1) Ten adult Drosophila melanogaster flies (5 males and 5 females) of the Oregon wild-type strain and ten adult flies of a spinosyn-resistant strain were used per treatment. Two sets (of 10 flies) were set-up per treatment. Stocks of spinosyn A and a 21-butenyl-spinosyn analog were formulated at 1000 ppm in 2:1 acetone:water and then diluted to the required concentration in 10% sucrose. Vials received 500 ul of treatment (or solvent for controls) via cotton wicks (approximately ¼ inch) and flies were added to each vial and capped with a cotton plug. Flies were monitored over 72 hours post-treatment while being maintained at room-temperature with a 12:12 light:dark cycle.
(§2) In addition, the spinosyn A resistant flies were >100-fold resistant (based on LD50) to the new class of spinosyns, represented by the 21-butenyl spinosyns.

Test [3] has as its system Drosophila melanogaster flies of the Oregon wild-type strain. The test is described as follows: Adult fly mortality screen, wild-type flies. It counts as in vivo. The note with it: 100 ppm in 10% sucrose via cotton wick, 72 hours post-treatment. As to the method:
as §1, §2

The next test concerns 34E/30D/ric-3. It counts as cell-based, Drosophila melanogaster. Also on record: key to the marks not given beside the values. The settings on record: nicotine 1 mM for 30 seconds, −60 mV, peak current. Here is the method:
(§3) Xenopus laevis (Xenopus 1, Ann Arbor, Mich.; Nasco, Fort Atkinson, Wis.) were anesthetized by bathing in a solution of 2 g/l tricaine methane sulfonate, and oocytes were surgically removed from the frog and placed in a culture solution that consisted of 96 mM NaCl, 2 mM KCl, 1.8 mM CaCl2, 1 mM MgCl2, 5 mM HEPES, 2.5 mM Na-pyruvate, 100 units/ml penicillin, and 0.1 mg/ml streptomycin, pH 7.6. Oocytes were dispersed in a nominally zero Ca^2+ protease treatment solution to defolliculate the oocytes. The protease treatment solution consisted of either 88 mM NaCl, 2.5 mM KCl, 1 mM MgCl2, 5 mM HEPES, 2.5 mM Na-pyruvate, 100 units/ml penicillin, and 0.1 mg/ml streptomycin, pH 7.6 plus 1.5 mg/ml collagenase IA (Sigma Chemical Co., St. Louis, Mo.). After isolation, the oocytes were thoroughly rinsed and returned to the above Ca^2+ containing culture solution and stored at 18° C.
(§4) Synthesis of cRNA was performed as follows: Plasmid DNA was linearized with one of the following restriction enzymes; Not I, Xho I or Nhe I. The linearized DNA was subsequently used as template for cRNA synthesis using T7 mMessage mMachine kit (Ambion, Austin, Tex.) following the manufacturer's instructions.
(§5) Micropipettes for injection of cRNA into Xenopus oocytes were pulled on a DMZ-Universal Puller (Zeitz-Instruments, München, Germany). The cRNA to be injected was drawn up into the micropipette with negative pressure. Approximately 10-50 ng of cRNA was injected into the oocytes by applying positive pressure using a Nanoject II oocyte injector (Drummond Scientific Co., Broomall, Pa.). Nucleic acid was introduced into the oocytes as follows: (1) nicotinic acetylcholine receptor alpha-6 subunit subunit (30D) (2) nicotinic alpha-7 receptor subunit (34E); (3) nicotinic acetylcholine receptor alpha-6 subunit and C. elegans ric-3 (30D and ric-3); (4) nicotinic alpha-7 receptor subunit and C. elegans ric-3 (34E and ric-3); (5) nicotinic acetylcholine receptor alpha-6 subunit and nicotinic alpha-7 receptor subunit (30D and 34E); and, (6) nicotinic acetylcholine receptor alpha-6 subunit, nicotinic alpha-7 receptor subunit and C. elegans ric-3 (30D, 34E and ric-3).
(§6) The control external solution for voltage clamp recordings consisted of 88 mM NaCl, 1 mM KCl, 0.41 mM CaCl2, 2.4 mM NaHCO3, 0.3 mM Ca(NO3)2, 0.82 mM MgSO4·7 H2O, and 15 mM HEPES, pH 7.6. The recording chamber was continuously perfused with a gravity-fed perfusion system. Nicotine (1 mM) was added to the external solution and then added to the perfusate for 30 seconds. Then, nicotine was washed from the external solution a minimum of 10 minutes. Thereafter, spinosyn A was dissolved in dimethylsulfoxide (DMSO) and then dissolved in the external solution at a final concentration of 10 μM and then added to the perfusate for 60 seconds. […]

For the next test, the system named is 34E/30D. It counts as cell-based, Drosophila melanogaster. Also on record: key to the marks not given beside the values. The settings on record: nicotine 1 mM for 30 seconds, −60 mV, peak current. As to the method: as §3, §4, §5, §6
The next test relates to Dα6-nicotinic receptor. In kind it is binding, Drosophila melanogaster.
The subject of test [4] is 30D (nicotinic acetylcholine receptor alpha-6 subunit). It counts as cell-based, Drosophila melanogaster. Here is the method: as §3, §4, §5
(§7) The control external solution for voltage clamp recordings consisted of 88 mM NaCl, 1 mM KCl, 0.41 mM CaCl2, 2.4 mM NaHCO3, 0.3 mM Ca(NO3)2, 0.82 mM MgSO4·7 H2O, and 15 mM HEPES, pH 7.6. The recording chamber was continuously perfused with a gravity-fed perfusion system. Nicotine (1 mM) was added to the external solution and then added to the perfusate for 30 seconds. Then, nicotine was washed from the external solution a minimum of 10 minutes. Thereafter, spinosyn A was dissolved in dimethylsulfoxide (DMSO) and then dissolved in the external solution at a final concentration of 10 μM and then added to the perfusate for 60 seconds. Then, the spinosyn A was washed from the external solution. The final concentration of DMSO never exceeded 0.1% (v/v).

The subject of the next test is 34E/ric-3. It counts as cell-based, Drosophila melanogaster. Here is the method:
as §3, §4, §5, §7

For another test, the system named is 30D/ric-3. In kind it is cell-based, Drosophila melanogaster. The note with it: nicotine 1 mM for 30 seconds, −60 mV, peak current. As to the method:
as §3, §4, §5, §7

For test [5], the system named is 34E (nicotinic acetylcholine receptor alpha-5 subunit). In kind it is cell-based, Drosophila melanogaster. As to the method:
as §3, §4, §5, §7

Setting [6] is: D.Mel-2 cells expressing Dα6 and C. elegans ric3.

Read-outs that look alike come from different tables or passages of the source. Where only a bound is given, the exact number is not on record here.

Description for Dα6-nicotinic receptor: Xenopus oocytes were injected as previously described for the electrophysiological assay and were used intact for binding assays.
Two main radioligands were used in binding assays: the conventional α7 radioligand, [^3H]methyllycaconitine (MLA) and [^3H]dihydrospinosyn A (DHSA). For both radioligands, the Binding Buffer used consisted of 10 mM sodium phosphate (7.2-7.4). […] For Xenopus oocyte binding assays, oocytes were pooled (2-5 oocytes) and transferred to 1 ml Binding Buffer. This was followed by gently aspirating the Binding Buffer and replacing with fresh Binding Buffer twice, to wash out any residual oocyte bathing media. The final volume of buffer added to each pool of oocytes was 50-100 μl. […] Subsequent dilutions were made in Binding Buffer. The final concentration of solvent was maintained at less than 0.1% in each well. 25 μl of unlabeled competing compounds were added to the cell suspensions or oocytes. Cells or cell extracts were pre-incubated with compounds for 15-30 minutes, at 10° C. (for [^3H]DHSA) and room-temperature for [^3H]MLA. The samples were gently shaken using a plate shaker. […] Filter mats were dried in an oven at 60° C. and the radioactivity from samples was counted for three minutes with a Wallac MicroBeta Counter (Wallac, Conn.) using Meltilex solid-scintillant (PerkinElmer, Finland). […]

For `CN1[C@@H]2CC[C@H]1C[C@@H](OC(=O)C(CO)c1ccccc1)C2` (some centres unmarked) [atropine], in [1], the “displacement of [3H]DHSA binding” value was “not”.

alpha-bungarotoxin: in test [1], the “displacement of [3H]DHSA binding” value is “can be demonstrated at higher concentrations” and the “overall affinity for this receptor complex” value is reported as “relatively poor”.

Consider `NS(=O)(=O)c1cc(C(=O)O)c(NCc2ccco2)cc1Cl` [furosemide], for which the “displacement of [3H]DHSA binding” value in test [1] (setting [6]) is “No significant displacement”.

Turning to 21-butenyl spinosyn, the mortality result in test [2] (100 ppm in 10% sucrose via cotton wick, 72 hours post-treatment, spinosyn-resistant flies) is on record as “no significant mortality”; in test [3], “all wild-type flies exhibited mortality”. Also, the “resistance of spinosyn A resistant flies compared to wild-type flies (based on LD50)” value in test [2] (dose-response data, LD50, resistant vs wild-type flies) is on record as more than 100 fold.

Take `C[C@@H]1O[C@H](C[N+](C)(C)C)C[C@H]1O` [muscarine]: the “displacement of [3H]DHSA binding” value in test [1] (setting [6]) was “not”.

With `C[N+](C)(C)CCOC(N)=O.[Cl-]` [carbamylcholine], the “displacement of [3H]DHSA binding” value in [1] (setting [6]) was “did not significantly displace”.

For the compound `CN1CCCC1c1cccnc1` (centres unmarked) [Nicotine, nicotine], the “Nicotine Response” value with 34E/30D/ric-3 is recorded as “++++”; with 34E/30D, “++”; in test [4], “−”; in the test on 34E/ric-3, “+”; with 30D/ric-3, “+”; in [5], “+”. Further, the “% Displacement of Total Binding” value in the test on Dα6-nicotinic receptor is given as 72%. Also, in test [1] (setting [6]), the “displacement of [3H]DHSA binding” value is “displacement”.

Turning to `CN1[C@@H](CC(=O)c2ccccc2)CCC[C@H]1C[C@H](O)c1ccccc1` [lobeline], the “displacement of [3H]DHSA binding” value in test [1] (setting [6]) was “did not significantly displace”.

For `CCN1C[C@]2(COC(=O)c3ccccc3N3C(=O)C[C@H](C)C3=O)CC[C@H](OC)[C@@]34[C@@H]5C[C@H]6[C@H](OC)[C@@H]5[C@](O)(C[C@@H]6OC)[C@@](O)([C@@H](OC)[C@H]23)[C@@H]14` [MLA, methyllycaconitine], the “displacement of [3H]DHSA binding” value in test [1] (setting [6]) is given as “can be demonstrated at higher concentrations”. For the same compound, the “overall affinity for this receptor complex” value in [1] ([3H]DHSA binding assay, D.Mel-2 cells) is “relatively poor”.

As for `CN1COCN(Cc2cnc(Cl)s2)/C1=N\[N+](=O)[O-]` [thiamethoxam], in test [1] (setting [6]), the “displacement of [3H]DHSA binding” value is on record as “did not significantly displace”.

As to `CC[C@H]1CCC[C@H](O)[C@@H](C)C(=O)C2=C[C@@H]3[C@@H](C=C[C@@H]4C[C@@H](O[C@@H]5O[C@@H](C)[C@H](OC)[C@@H](OC)[C@H]5OC)C[C@@H]34)[C@@H]2CC(=O)O1` [pseudoagylcone of spinosyn A], in [1] (setting [6]), the “displacement of [3H]DHSA binding” value is reported as “Nor was there significant displacement”.

For the compound `Clc1ccc(C2CC3CCC2N3)cn1` (centres unmarked) [epibatidine], the “displacement of [3H]DHSA binding” value in test [1] (setting [6]) is “did not significantly displace”.

As for `C[C@H](O)[C@H](O)[C@@H](O)[C@@H](O)C=O` [rhamnose], the “displacement of [3H]DHSA binding” value in test [1] (setting [6]) is given as “No significant displacement”.

Take `CC[C@H]1CCC[C@H](O[C@H]2CC[C@H](N(C)C)[C@@H](C)O2)[C@@H](C)C(=O)C2=C[C@H]3[C@@H]4C[C@H](O[C@@H]5O[C@@H](C)[C@H](OC)[C@@H](OC)[C@H]5OC)C[C@H]4CC[C@H]3[C@@H]2CC(=O)O1` [dihydrospinosyn A]: the “displacement of [3H]DHSA binding” value in test [1] (setting [6]) was “significant displacement”.

Take `O=[N+]([O-])NC1=NCCN1Cc1ccc(Cl)nc1` [imidacloprid]: in test [1] (setting [6]), the “displacement of [3H]DHSA binding” value is listed as “did not significantly displace”.

The values above are taken from patent US20060269995A1, “Novel assays utilizing nicotinic acetylcholine receptor subunits” (priority 2005, published 2006).
